Experiment [1] concerns Escherichia coli strain ATCC25922. In words: Standard microdilution MIC assay, E. coli. The experiment is classed as cell-based. The essentials: (§1)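 MICs obtained by CLSI-standard microdilution, quality-controlled with reference strains in parallel. Values reported as + or − relative to a 16 micrograms/mL cutoff.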
Experiment [2] relates to Staphylococcus aureus (S. aureus) 11540 strain. The experiment can be described thus: Standard microdilution MIC assay, S. aureus. The experiment is classed as cell-based. In outline: as §1

SMILES strings stand for the structures.

The source of these data is patent publication US11999739B2, “Antimicrobials methods of making and using the same” (BIOVERSYS AG, priority 2016, dated 2024).

Turning to `CC(=N)NCC[C@@H]1CCC[C@@H](c2ccc(-n3cc4cc(-c5cc(F)c(C(F)(F)F)c(CCC[C@H](C)N)c5)[nH]c4nc3=O)cc2)N1` [Compound 318], the MIC in experiment [1] and in experiment [2] was at most 16 µg/mL in each case.

With `COc1cc(-n2cc3cc(-c4cc(CCC[C@H](C)N)cc(Cl)c4F)[nH]c3nc2=O)cc(F)c1[C@@H]1CCC[C@@H](CCNC(C)=N)N1` [Compound 319], the MIC in experiment [1] and in experiment [2] was at most 16 µg/mL each time.

For the compound `C=C[C@H](N)CCCc1cc(Cl)c(F)c(-c2cc3cn(-c4cc(F)c([C@@H]5CCC[C@@H](CCNC(C)=N)N5)c(OC)c4)c(=O)nc3[nH]2)c1` [Compound 320], the MIC in experiment [1] and in experiment [2] was at most 16 µg/mL each time.

With `COc1cc(-n2cc3cc(-c4cc(CCC[C@@H](N)C5CC5)cc(Cl)c4F)[nH]c3nc2=O)cc(F)c1[C@@H]1CCC[C@@H](CCNC(C)=N)N1` [Compound 321], the MIC in experiment [1] and in experiment [2] was at most 16 µg/mL in each case.

On to `COc1cc(-n2cc3cc(-c4cc(CCC[C@@H](N)CO)cc(C(F)(F)F)c4F)[nH]c3nc2=O)cc(F)c1[C@@H]1CCC[C@@H](CCNC(C)=N)N1` [Compound 323], for which the MIC in experiment [1] and in experiment [2] was at most 16 µg/mL each time.

Turning to `CC(=N)NCC[C@@H]1CCC[C@@H](c2ccc(-n3cc4cc(-c5cc(CCC[C@H](C)N)cc(Cl)c5F)[nH]c4nc3=O)cc2F)N1CCCF` [Compound 325], the minimal inhibitory concentration (MIC) in experiment [1] and in experiment [2] was at most 16 µg/mL in each case.

Turning to `CSc1cc(-n2cc3cc(-c4cc(CCC[C@@H](N)C5CC5)cc(C(F)(F)F)c4)[nH]c3nc2=O)ccc1[C@@H]1CCC[C@@H](CCNC(C)=N)N1CCCF` [Compound 326], the minimal inhibitory concentration (MIC) in experiment [1] and in experiment [2] was at most 16 µg/mL throughout.

As for `CC(=N)NCC[C@@H]1CCC[C@@H](c2ccc(-n3cc4cc(-c5cc(CCC[C@@H](N)C6CC6)cc(C(F)(F)F)c5)[nH]c4nc3=O)cc2F)N1CCCF` [Compound 327], the MIC in experiment [1] and in experiment [2] was at most 16 µg/mL throughout.

As for `CC(=N)NCC[C@@H]1CCC[C@@H](c2ccc(-n3cc4cc(-c5cc(CCC[C@H](C)N)cc(C(F)(F)F)c5)[nH]c4nc3=O)cc2F)N1CCCF` [Compound 328], the MIC in experiment [1] and in experiment [2] was at most 16 µg/mL throughout.

With `CSc1cc(-n2cc3cc(-c4cc(CCC[C@H](C)N)cc(C(F)(F)F)c4)[nH]c3nc2=O)cc(F)c1[C@@H]1CCC[C@@H](CCNC(C)=N)N1CCCF` [Compound 329], the minimum inhibitory concentration (MIC) in experiment [1] and in experiment [2] was at most 16 µg/mL each time.

`CC(=N)NCC[C@@H]1CCC[C@@H](c2ccc(-n3cc4cc(-c5cc(CCC[C@@H](N)C6CC6)cc(C(F)(F)F)c5)[nH]c4nc3=O)cc2)N1CCCF` [Compound 330]: the minimum inhibitory concentration (MIC) in experiment [1] and in experiment [2] was at most 16 µg/mL each time.

As for `CSc1cc(-n2cc3cc(-c4cc(CCC[C@H](C)N)cc(Cl)c4F)[nH]c3nc2=O)ccc1[C@@H]1CCC[C@@H](CCNC(C)=N)N1CCCF` [Compound 331], the minimal inhibitory concentration (MIC) in experiment [1] and in experiment [2] was at most 16 µg/mL in each case.

For `CC(=N)NCC[C@@H]1CCC[C@@H](c2ccc(-n3cc4cc(-c5cc(CCC[C@@H](N)C6CC6)cc(Cl)c5F)[nH]c4nc3=O)cc2F)N1CCCF` [Compound 332], the minimal inhibitory concentration (MIC) in experiment [1] and in experiment [2] was at most 16 µg/mL in each case.

Regarding `CSc1cc(-n2cc3cc(-c4cc(CCC[C@@H](N)C5CC5)cc(Cl)c4F)[nH]c3nc2=O)ccc1[C@@H]1CCC[C@@H](CCNC(C)=N)N1CCCF` [Compound 333], the minimum inhibitory concentration (MIC) in experiment [1] and in experiment [2] was at most 16 µg/mL each time.

On to `CC(=N)NCC[C@@H]1CCC[C@@H](c2ccc(-n3cc4cc(-c5cc(CCC[C@@H](N)C6CC6)cc(Cl)c5F)[nH]c4nc3=O)cc2)N1CCCF` [Compound 334], for which the minimal inhibitory concentration (MIC) in experiment [1] and in experiment [2] was at most 16 µg/mL in each case.

Take `CSc1cc(-n2c(C)c3cc(-c4cc(CCC[C@@H](N)C5CC5)cc(Cl)c4F)[nH]c3nc2=O)ccc1[C@@H]1CCC[C@@H](CCNC(C)=N)N1` [Compound 335]: the minimum inhibitory concentration (MIC) in experiment [1] and in experiment [2] was at most 16 µg/mL in each case.

With `CSc1cc(-n2cc3cc(-c4cc(CCC[C@@H](N)C5CC5)cc(C(F)(F)F)c4)[nH]c3nc2=O)cc(F)c1[C@@H]1CCC[C@@H](CCNC(C)=N)N1CCCF` [Compound 337], the MIC in experiment [1] and in experiment [2] was at most 16 µg/mL throughout.

For `CSc1cc(-n2cc3cc(-c4cc(CCC[C@@H](N)C5CC5)cc(Cl)c4F)[nH]c3nc2=O)cc(F)c1[C@@H]1CCC[C@@H](CCNC(C)=N)N1CCCF` [Compound 338], the MIC in experiment [1] and in experiment [2] was at most 16 µg/mL each time.

For `COC[C@H](N)CCCc1cc(-c2cc3cn(-c4ccc([C@@H]5CCC[C@@H](C[C@@H](C)NC(C)=N)N5)cc4)c(=O)nc3[nH]2)c(F)c(C(F)(F)F)c1` [Compound 339], the MIC in experiment [1] and in experiment [2] was at most 16 µg/mL throughout.

Consider `C=C[C@@H](N)CCCc1cc(Cl)c(F)c(-c2cc3cn(-c4ccc([C@@H]5CCC[C@@H](C[C@@H](C)NC(C)=N)N5)cc4)c(=O)nc3[nH]2)c1` [Compound 340], for which the MIC in experiment [1] and in experiment [2] was at most 16 µg/mL each time.

`C=C[C@H](N)CCCc1cc(-c2cc3cn(-c4ccc([C@@H]5CCC[C@@H](CCNC(C)=N)N5CCCF)c(SC)c4)c(=O)nc3[nH]2)cc(C(F)(F)F)c1` [Compound 342]: the minimal inhibitory concentration (MIC) in experiment [1] and in experiment [2] was at most 16 µg/mL throughout.

As to `C=C[C@H](N)CCCc1cc(Cl)c(F)c(-c2cc3cn(-c4ccc([C@@H]5CCC[C@@H](CCNC(C)=N)N5CCCF)cc4)c(=O)nc3[nH]2)c1` [Compound 343], the MIC in experiment [1] and in experiment [2] was at most 16 µg/mL throughout.

For `C=C[C@H](N)CCCc1cc(Cl)c(F)c(-c2cc3cn(-c4ccc([C@@H]5CCC[C@@H](CCNC(C)=N)N5CCCF)c(SC)c4)c(=O)nc3[nH]2)c1` [Compound 344], the MIC in experiment [1] and in experiment [2] was at most 16 µg/mL throughout.

Take `C=C[C@H](N)CCCc1cc(-c2cc3cn(-c4ccc([C@@H]5CCC[C@@H](CCNC(C)=N)N5CCCF)cc4)c(=O)nc3[nH]2)cc(C(F)(F)F)c1` [Compound 346]: the minimum inhibitory concentration (MIC) in experiment [1] and in experiment [2] was at most 16 µg/mL in each case.

As to `COC[C@H](N)CCCc1cc(OC(F)(F)F)c(F)c(-c2cc3cn(-c4ccc([C@@H]5CCC[C@@H](CCNC(C)=N)N5)nc4)c(=O)nc3[nH]2)c1` [Compound 347], the minimum inhibitory concentration (MIC) in experiment [1] and in experiment [2] was at most 16 µg/mL each time.

With `COCCC(=N)NCC[C@@H]1CCC[C@@H](c2ccc(-n3cc4cc(-c5cc(CCC[C@H](C)N)cc(Cl)c5F)[nH]c4nc3=O)cc2)N1` [Compound 348], the MIC in experiment [1] and in experiment [2] was at most 16 µg/mL in each case.

Take `C=C[C@H](N)CCCc1cc(-c2cc3cn(-c4ccc([C@@H]5CCC[C@@H](CCNC(C)=N)N5CCCF)c(F)c4)c(=O)nc3[nH]2)cc(C(F)(F)F)c1` [Compound 349]: the MIC in experiment [1] and in experiment [2] was at most 16 µg/mL in each case.

`C=C[C@H](N)CCCc1cc(Cl)c(F)c(-c2cc3cn(-c4cc(F)c([C@@H]5CCC[C@@H](CCNC(C)=N)N5CCCF)c(SC)c4)c(=O)nc3[nH]2)c1` [Compound 350]: the minimal inhibitory concentration (MIC) in experiment [1] and in experiment [2] was at most 16 µg/mL each time.

Regarding `C=C[C@H](N)CCCc1cc(-c2cc3cn(-c4cc(F)c([C@@H]5CCC[C@@H](CCNC(C)=N)N5CCCF)c(SC)c4)c(=O)nc3[nH]2)cc(C(F)(F)F)c1` [Compound 351], the MIC in experiment [1] and in experiment [2] was at most 16 µg/mL in each case.

Regarding `CCCC(=N)NCC[C@@H]1CCC[C@@H](c2ccc(-n3cc4cc(-c5cc(CCC[C@H](C)N)cc(Cl)c5F)[nH]c4nc3=O)cc2)N1` [Compound 352], the MIC in experiment [1] and in experiment [2] was at most 16 µg/mL throughout.

Consider `CCCC(=N)NCC[C@@H]1CCC[C@@H](c2ccc(-n3cc4cc(-c5cc(CCC[C@H](C)N)cc(Cl)c5F)[nH]c4nc3=O)cc2SC)N1` [Compound 353], for which the MIC in experiment [1] and in experiment [2] was at most 16 µg/mL throughout.

For `C=C[C@H](N)CCCc1cc(Cl)c(F)c(-c2cc3cn(-c4ccc([C@@H]5CCC[C@@H](CCNC(C)=N)N5CCCF)c(F)c4)c(=O)nc3[nH]2)c1` [Compound 355], the MIC in experiment [1] and in experiment [2] was at most 16 µg/mL throughout.

As to `COCC(=N)NCC[C@@H]1CCC[C@@H](c2ccc(-n3cc4cc(-c5cc(CCC[C@H](C)N)cc(Cl)c5F)[nH]c4nc3=O)cc2)N1` [Compound 356], the minimum inhibitory concentration (MIC) in experiment [1] and in experiment [2] was at most 16 µg/mL throughout.

`C[C@H](N)CCCc1cc(Cl)c(F)c(-c2cc3cn(-c4ccc([C@@H]5CCC[C@@H](CCNC(=N)CCO)N5)cc4)c(=O)nc3[nH]2)c1` [Compound 357]: the minimal inhibitory concentration (MIC) in experiment [1] and in experiment [2] was at most 16 µg/mL throughout.

Consider `COC[C@H](N)CCCc1cc(Cl)c(F)c(-c2cc3cn(-c4ccc([C@@H]5CCC[C@@H](CCNC(C)=N)N5)nc4)c(=O)nc3[nH]2)c1` [Compound 358], for which the MIC in experiment [1] and in experiment [2] was at most 16 µg/mL each time.

Consider `COCCOCC(=N)NCC[C@@H]1CCC[C@@H](c2ccc(-n3cc4cc(-c5cc(CCC[C@H](C)N)cc(Cl)c5F)[nH]c4nc3=O)cc2)N1` [Compound 362], for which the MIC in experiment [1] and in experiment [2] was at most 16 µg/mL in each case.

With `CC(=N)NC[C@@H]1CCC[C@@H](c2ccc(-n3cc4cc(-c5cc(CCC[C@H](C)N)cc(Cl)c5F)[nH]c4nc3=O)cc2)N1` [Compound 363], the minimal inhibitory concentration (MIC) in experiment [1] and in experiment [2] was at most 16 µg/mL in each case.

With `CC(=N)NCC[C@@H]1CCC[C@@H](c2ccc(-n3cc4cc(-c5cc(CCC[C@H](C)N)cc(Cl)c5F)[nH]c4nc3=O)cc2)N1CCF` [Compound 364], the MIC in experiment [1] and in experiment [2] was at most 16 µg/mL each time.

In the case of `CC(=N)NCC[C@@H]1CCC[C@@H](c2ccc(-n3cc4cc(-c5cc(CCC[C@H](C)N)cc(Cl)c5F)[nH]c4nc3=O)cc2)N1C[C@@H](C)CO` [Compound 365], the MIC in experiment [1] and in experiment [2] was at most 16 µg/mL in each case.

As for `CC(=N)NCC[C@@H]1CCC[C@@H](c2ccc(-n3cc4cc(-c5cc(CCC[C@H](C)N)cc(Cl)c5F)[nH]c4nc3=O)cc2)N1C[C@H](C)CO` [Compound 366], the MIC in experiment [1] and in experiment [2] was at most 16 µg/mL throughout.

Regarding `CC(=N)NCC[C@@H]1CCC[C@@H](c2ccc(-n3cc4cc(-c5cc(CCC[C@H](C)N)cc(Cl)c5F)[nH]c4nc3=O)cc2)N1CC(C)C` [Compound 369], the MIC in experiment [1] and in experiment [2] was at most 16 µg/mL throughout.
